Columns and labels:
Assay type in all cases: functional
Conditions in all cases: read-out: GI
CCRF-CEM = experiment: Growth inhibition of human CCRF-CEM cells at 10 uM incubated for 48 hrs by sulforhodamine B assay relative to control
HOP-92 = experiment: Growth inhibition of human HOP-92 cells at 10 uM incubated for 48 hrs by sulforhodamine B assay relative to control
HCT-116 = experiment: Growth inhibition of human HCT-116 cells at 10 uM incubated for 48 hrs by sulforhodamine B assay relative to control
CAKI-1 = experiment: Growth inhibition of human CAKI-1 cells at 10 uM incubated for 48 hrs by sulforhodamine B assay relative to control
HCT-15 = experiment: Growth inhibition of human HCT-15 cells at 10 uM incubated for 48 hrs by sulforhodamine B assay relative to control
HOP-62 = experiment: Growth inhibition of human HOP-62 cells at 10 uM incubated for 48 hrs by sulforhodamine B assay relative to control
A498 = experiment: Growth inhibition of human A498 cells at 10 uM incubated for 48 hrs by sulforhodamine B assay relative to control
LOX IMVI = experiment: Growth inhibition of human LOX IMVI cells at 10 uM incubated for 48 hrs by sulforhodamine B assay relative to control
NCI-H460 = experiment: Growth inhibition of human NCI-H460 cells at 10 uM incubated for 48 hrs by sulforhodamine B assay relative to control
SW-620 = experiment: Growth inhibition of human SW-620 cells at 10 uM incubated for 48 hrs by sulforhodamine B assay relative to control
NCI/ADR-RES = experiment: Growth inhibition of human NCI/ADR-RES cells at 10 uM incubated for 48 hrs by sulforhodamine B assay relative to control
SK-MEL-28 = experiment: Growth inhibition of human SK-MEL-28 cells at 10 uM incubated for 48 hrs by sulforhodamine B assay relative to control
EKVX = experiment: Growth inhibition of human EKVX cells at 10 uM incubated for 48 hrs by sulforhodamine B assay relative to control
COLO 205 = experiment: Growth inhibition of human COLO 205 cells at 10 uM incubated for 48 hrs by sulforhodamine B assay relative to control
SNB-75 = experiment: Growth inhibition of human SNB-75 cells at 10 uM incubated for 48 hrs by sulforhodamine B assay relative to control
SK-MEL-2 = experiment: Growth inhibition of human SK-MEL-2 cells at 10 uM incubated for 48 hrs by sulforhodamine B assay relative to control

| Compound | inhibition of growth at 10 µM (CCRF-CEM) [%] | inhibition of growth at 10 µM (HOP-92) [%] | inhibition of growth at 10 µM (HCT-116) [%] | inhibition of growth at 10 µM (CAKI-1) [%] | inhibition of growth at 10 µM (HCT-15) [%] | inhibition of growth at 10 µM (HOP-62) [%] | inhibition of growth at 10 µM (A498) [%] | inhibition of growth at 10 µM (LOX IMVI) [%] | inhibition of growth at 10 µM (NCI-H460) [%] | inhibition of growth at 10 µM (SW-620) [%] | inhibition of growth at 10 µM (NCI/ADR-RES) [%] | inhibition of growth at 10 µM (SK-MEL-28) [%] | inhibition of growth at 10 µM (EKVX) [%] | inhibition of growth at 10 µM (COLO 205) [%] | inhibition of growth at 10 µM (SNB-75) [%] | inhibition of growth at 10 µM (SK-MEL-2) [%] |
| --- | --- | --- | --- | --- | --- | --- | --- | --- | --- | --- | --- | --- | --- | --- | --- | --- |
| CN1CCN(CC(=O)Nc2ccc(-c3nc4ccccc4s3)cc2)CC1 | 36.3 | 64.3 | 29.1 | 26.5 | 47.1 | 12.7 | 40.5 | 134 | 15.3 | -2.26 | 14.4 | 66.2 | 16.3 | 60.3 | 26.9 | – |
| Cc1cc(C)n(CC(=O)Nc2ccc(-c3nc4ccccc4s3)cc2)n1 | 1.49 | 2.31 | -7.45 | -1.54 | -5.24 | -5.06 | 5.37 | 2.33 | -2.37 | -13.1 | -2.56 | -8.88 | -7.86 | -12.4 | -0.57 | – |
| O=C(Cn1ccc2ccccc21)Nc1ccc(-c2nc3ccccc3s2)cc1 | 2.97 | -4.8 | -1.55 | -0.29 | -10.2 | -3.42 | 0.94 | 8.68 | -4.62 | -6.47 | -0.33 | -13.7 | -7.41 | -0.82 | 6.21 | – |
| NS(=O)(=O)c1ccc(NCC(=O)Nc2ccc(-c3nc4ccccc4s3)cc2)cc1 | 93.8 | 26.5 | 74.9 | 7.14 | 53.4 | -17.8 | – | 87 | 7.45 | 36.3 | 5.97 | 0.58 | – | 1.47 | 30.5 | 12.2 |
| O=C(CN1CCOCC1)Nc1ccc(-c2nc3ccccc3s2)cc1 | 4.51 | 16.7 | 3.9 | 0.31 | 6.26 | -6.41 | – | 0.08 | 0.34 | -7.93 | -4.92 | -2.13 | – | -15.3 | 0.01 | -14.6 |
| O=C(CNc1nc(-c2ccc(Cl)cc2)cs1)Nc1ccc(-c2nc3ccccc3s2)cc1 | 7.04 | 7.09 | 4.49 | 5.79 | -10.2 | -6.21 | -2.14 | 4.39 | 8.75 | 0.12 | 5.81 | -10.9 | -2.38 | 6.21 | 22.2 | – |
| O=C(Cn1cnc2ccccc21)Nc1ccc(-c2nc3ccccc3s2)cc1 | 27.1 | 18.4 | 56.5 | 38.1 | 7.41 | 12.6 | 33.2 | 44.6 | 34.3 | 15.2 | 38.9 | -0.72 | 46.8 | 22.5 | 6.6 | – |
| O=C(CNC1CCCCC1)Nc1ccc(-c2nc3ccccc3s2)cc1 | 22.7 | 51.2 | 23 | 14 | 37.1 | 14.8 | – | 26.1 | 8.69 | -0.38 | 11 | 4.77 | – | 4.58 | 32.7 | -4.63 |
| COc1ccc(NCC(=O)Nc2ccc(-c3nc4ccccc4s3)cc2)cc1 | 40.8 | 29.1 | 11.6 | -2.81 | 10.1 | 14.6 | – | 8.68 | 0.74 | -4.02 | -1.88 | -11.1 | – | -6.9 | 25.4 | -15.7 |
| O=C(CNCc1ccccc1)Nc1ccc(-c2nc3ccccc3s2)cc1 | 9.29 | 15.1 | 5.15 | 9.29 | 8.74 | -6.53 | – | 3.99 | 3.57 | -1.34 | -0.82 | 2.7 | – | -11.5 | 18 | -7.25 |
| O=C(CNc1ccccc1)Nc1ccc(-c2nc3ccccc3s2)cc1 | 74.3 | 3.37 | 29.7 | 1.16 | 29.6 | -12 | – | 55.4 | 0.08 | -6.41 | 1.75 | 3.37 | – | -11.2 | 17.4 | -4.93 |
| O=C(CN1CCCCC1)Nc1ccc(-c2nc3ccccc3s2)cc1 | 10.4 | 44.5 | 5.5 | 9.3 | 28 | 7.87 | – | 21 | -1.42 | -9.04 | 6.26 | -9.51 | – | -5.35 | 1.53 | -7.06 |
| Cc1ccc(NCC(=O)Nc2ccc(-c3nc4ccccc4s3)cc2)cc1 | 60.1 | 15.7 | 5.72 | 0.82 | 13.4 | 3.62 | – | 22.8 | -2.34 | -7.34 | 2.16 | -17.2 | – | -3.48 | -0.38 | -6.66 |

Source: ChEMBL document CHEMBL4765227, “Hit to lead optimization of a series of N-[4-(1,3-benzothiazol-2-yl)phenyl]acetamides as monoacylglycerol lipase inhibitors with potential anticancer activity” (Eur J Med Chem, 2016)
